Source: patent US12516365B2, “Biocide compositions compatible with enzyme biosensors and methods of use thereof” (priority 2019, dated 2026)
Where a name gives a salt, the structure may show the parent alone.

How the values were obtained:
Creatinine Sensor = test: Screen of biocides/antibiotics for compatibility with the Creatinine Sensor (Creatinine Sensor Slope loss); assay type: biochemical; set-up: key: “Fail” indicates the compound inhibited Creatinine Sensor Slope; “Pass” indicates there was no significant effect on Creatinine Sensor Slope
From the text: In one embodiment, a biocide candidate may be injected into, for example, one PCS-B bag after about one week of cartridge use life, and then any changes in sensor slopes over the next week or two, especially any increase in the rate of slope decrease, may be observed. During this time, aqueous solutions with high substrate concentrations may be tested to ensure that enzymes are still able to convert all substrate to products in the allotted time (e.g., about one minute).
In one embodiment, multiple cartridges assembled with, for example, PCS-B bags containing a candidate biocide may be tested for a prolonged period of time (e.g., 20-30 days) that corresponds to the useful cartridge lifespan (which may vary depending upon the cartridge type tested). In this case the cartridge starts the hydration process, which generally lasts about 50 minutes, with the biocide already in the solution bag (e.g., PCS-B). […] Over the course of 3 weeks, in addition to running aqueous controls that have established acceptance ranges, whole human blood may also be tested in order to simulate normal customer use.
A variety of candidate molecules were screened as described above to determine whether they were compatible with the Creatinine Sensor, i.e. whether there was a significant effect on Creatinine Sensor Slope.

[1] = tested on: ChemSTAT creatinine sensor (creatininase, creatinase and sarcosine oxidase); test: Creatinine and creatine sensor slopes over time with biocide in Process Control Solution (PCS); assay type: biochemical; conditions: for Creatinine and creatine slopes over time after addition to PCS: 20 mg/L added to PCS-B after stable slopes for more than one week
Method: FIGS. 2A-2B show plots of creatinine and creatine slopes over time in the presence of either MIT or polymyxin B, respectively. […] Stable slopes were first established for more than one week before 300 mg/L MIT (methyl isothiazolinone) or 20 mg/L polymyxin B was added to the Process Control Solution (PCS) B (e.g., PCS-B).
The present disclosure discovered that Polymyxin B and Polymyxin E (aka, Colistin Sulfate) were compatible with a ChemSTAT creatinine sensor that utilized two hydrolase class enzymes (e.g., creatininase and creatinase) and sarcosine oxidase to measure creatinine. When included in Process Control Solutions (PCS) at a concentration sufficient to kill microbes (e.g., bacteria, in particular gram negative rods including various strains of Pseudomonas), the slope of the sensor remained high enough over 21 days to continually allow accurate measurement of creatinine in human blood and aqueous control solutions even at the upper end of the linear range where reduced enzyme activity could result in low recovery of substrate.
MIT is the most common biocide used in the blood gas industry for microbial contamination, and is known to be compatible with oxidase class enzymes such as glucose oxidase and lactate oxidase.
Importantly, the creatinine slope performed equivalently with colistin in PCS bags (see FIG. 3, left) to cartridges with PCS bags protected only with gentamicin (see FIG. 3, right). In this plot, no bacterial contamination was observed on control or test biocide PCS bags nor was there any evidence of enzyme inhibition and therefore performance is similar.

| Molecule | Pass/Fail (Creatinine Sensor Slope Loss) (Creatinine Sensor) | Inhibition/inactivation of creatininase, creatinase and sarcosine oxidase [1] | other results |
| --- | --- | --- | --- |
| Oc1cccc2cccnc12 [8-hydroxyquinoline] | Fail |  |  |
| CC1(C)S[C@@H]2[C@H](NC(=O)C(C(=O)O)c3ccccc3)C(=O)N2C1C(=O)O (some centres unmarked) [Carbenicillin disodium] | Pass |  |  |
| NCC[C@H](O)C(=O)N[C@@H]1C[C@H](N)[C@@H](O[C@H]2O[C@H](CN)[C@@H](O)[C@H](O)[C@H]2O)[C@H](O)[C@H]1O[C@H]1O[C@H](CO)[C@@H](O)[C@H](N)[C@H]1O [Amikacin sulfate] | Pass |  |  |
| Cn1sc(Cl)cc1=O [Cl-MIT, chlorinatedmethyl- isonthiazolinone] | Fail | irreversibly inhibited |  |
| Cn1sc2ccccc2c1=O [MBIT, methylbenzisothiazolinone] | Fail | irreversibly inhibited |  |
| Oc1ccccc1-c1ccccc1 [2-phenyl phenol] | Fail |  |  |
| CCN1CCN(C(=O)N[C@@H](C(=O)N[C@@H]2C(=O)N3C(C(=O)O)C(C)(C)S[C@H]23)c2ccccc2)C(=O)C1=O (some centres unmarked) [Piperacillin] | Pass |  |  |
| CC1(C)NC(=O)NC1=O [Dantogard Plus, dimethylhydantoin] | Fail | irreversibly inhibited |  |
| C[C@H]1COc2c(N3CCN(C)CC3)c(F)cc3c(=O)c(C(=O)O)cn1c23 [Levofloxacin] | Pass |  |  |
| CN[C@@H]1[C@H](O)[C@H](NC)[C@H]2O[C@@]3(O)C(=O)C[C@@H](C)O[C@H]3O[C@@H]2[C@H]1O [Spectinomycin] | Pass |  |  |
| CCCCNC(=O)OCC#CI [Omacide IPBC, iodopropynylbutylcarbamate] | Fail | irreversibly inhibited |  |
| Streptomycin | Pass |  |  |
| O=c1[nH]sc2ccccc12 [BIT, benisothiazolinone] | Fail | irreversibly inhibited |  |
| COc1cc(Cc2cnc(N)nc2N)cc(OC)c1OC [Trimethoprim] | Fail | irreversibly inhibited |  |
| CCn1cc(C(=O)O)c(=O)c2cc(F)c(N3CCNCC3)cc21 [Norfloxacin] | Fail | irreversibly inhibited |  |
| Polymyxin B | Pass |  | Creatinine and creatine slopes over time after addition to PCS [1]: no effect; Creatinine and creatine slopes over time after addition to PCS ([1]; listed as polymyxin B): does not causes a rapid decay; Compatibility with ChemSTAT creatinine sensor ([1]; in PCS at a concentration sufficient to kill microbes, slope over 21 days): compatible |
| CNC1C(O)[C@@H](O[C@H]2C(N)C[C@H](N)C(O[C@H]3OC(C(C)N)CCC3N)C2O)OC[C@]1(C)O (some centres unmarked) [Gentamicin sulfate] | Pass |  | Creatinine slope performance over time in PCS ([1]; full use life of three weeks): maintained sufficient creatinine slope |
| CC(C)(O/N=C(\C(=O)N[C@@H]1C(=O)N2C(C(=O)[O-])=C(C[n+]3ccccc3)CS[C@H]12)c1csc(N)n1)C(=O)O [Ceftazidime] | Pass |  |  |
